Results as given in the supplement of paper PMC10307832.

What was measured:
Assay in all cases: relative viability (nuclei count vs DMSO), 5 days (fraction); higher = more cells survive
HCC-366 = system: HCC-366
Summary of the method: (§1)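 A single step with final 0.05% Triton X-100, 1% formaldehyde and 1 ug/ml Hoechst fixed the cells and stained nuclei 5 days after treatment. Lung cancer cell lines in 1536-well plates had been treated by pin tool the day after seeding with one drug alone or a fixed anchor-drug dose plus five library-drug doses (not always all listed) in √10 steps, and nuclei were counted on 4× images. Relative viability is the ratio of nuclei in treated wells to nuclei in vehicle wells, taken as the median of duplicate plates.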

NCI-H23 = system: NCI-H23
Summary of the method: as §1

ChaGo-K-1 = system: ChaGo-K-1
Summary of the method: as §1

NCI-H2228 = system: NCI-H2228
Summary of the method: as §1

NCI-H1944 = system: NCI-H1944
Summary of the method: as §1

NCI-H1993 = system: NCI-H1993
Summary of the method: as §1

NCI-H1793 = system: NCI-H1793
Summary of the method: as §1

EMC-BAC-2 = system: EMC-BAC-2
Summary of the method: as §1

NCI-H1734 = system: NCI-H1734
Summary of the method: as §1

NCI-H2009 = system: NCI-H2009
Summary of the method: as §1

HCC-78 = system: HCC-78
Summary of the method: as §1

**Q.** Which relative viability (HCC-366; first compound 0.01 µM) does the source give for `NC(=O)Nc1cc(-c2cccc(F)c2)sc1C(=O)N[C@H]1CCCNC1` [AZD7762] + CC1(C)CCC(c2ccc(Cl)cc2)=C(CN2CCN(c3ccc(C(=O)NS(=O)(=O)c4ccc(N[C@H](CCN5CCOCC5)CSc5ccccc5)c(S(=O)(=O)C(F)(F)F)c4)cc3)CC2)C1 [Navitoclax] (partner 0.5 µM) here?
**A.** The relative viability was 1.1.

**Q.** What about the relative viability (HCC-366; first compound 0.03162 µM) of the same compound?
**A.** The relative viability was 1.09.

**Q.** And the relative viability (HCC-366; first compound 0.1 µM)?
**A.** The relative viability was 1.06.

**Q.** What about the relative viability (HCC-366; first compound 0.3162 µM) of the same compound?
**A.** The relative viability was 0.687.

**Q.** What about the relative viability (HCC-366; first compound 1 µM) of the same compound?
**A.** The relative viability was 0.165.

**Q.** What about the relative viability (NCI-H23; first compound 0.01 µM) of the same compound?
**A.** Its relative viability is 0.983.

**Q.** And the relative viability (NCI-H23; first compound 0.03162 µM)?
**A.** The relative viability was 0.886.

**Q.** And the relative viability (NCI-H23; first compound 0.1 µM)?
**A.** Its relative viability is 0.905.

**Q.** What about the relative viability (NCI-H23; first compound 0.3162 µM) of the same compound?
**A.** Its relative viability is 0.783.

**Q.** And the relative viability (NCI-H23; first compound 1 µM)?
**A.** Its relative viability is 0.464.

**Q.** What about the relative viability (ChaGo-K-1; first compound 0.01 µM) of the same compound?
**A.** Its relative viability is 0.934.

**Q.** And the relative viability (ChaGo-K-1; first compound 0.03162 µM)?
**A.** The relative viability was 1.

**Q.** What about the relative viability (ChaGo-K-1; first compound 0.1 µM) of the same compound?
**A.** Its relative viability is 0.913.

**Q.** What about the relative viability (ChaGo-K-1; first compound 0.3162 µM) of the same compound?
**A.** Its relative viability is 0.813.

**Q.** What about the relative viability (ChaGo-K-1; first compound 1 µM) of the same compound?
**A.** The relative viability was 0.664.

**Q.** And the relative viability (NCI-H2228; first compound 0.01 µM)?
**A.** The relative viability was 1.

**Q.** And the relative viability (NCI-H2228; first compound 0.03162 µM)?
**A.** Its relative viability is 0.552.

**Q.** And the relative viability (NCI-H2228; first compound 0.1 µM)?
**A.** The relative viability was 1.

**Q.** What about the relative viability (NCI-H2228; first compound 0.3162 µM) of the same compound?
**A.** The relative viability was 0.666.

**Q.** What about the relative viability (NCI-H2228; first compound 1 µM) of the same compound?
**A.** Its relative viability is 0.354.

**Q.** What about the relative viability (NCI-H1944; first compound 0.01 µM) of the same compound?
**A.** The relative viability was 1.06.

**Q.** And the relative viability (NCI-H1944; first compound 0.03162 µM)?
**A.** The relative viability was 1.14.

**Q.** What about the relative viability (NCI-H1944; first compound 0.1 µM) of the same compound?
**A.** The relative viability was 1.1.

**Q.** What about the relative viability (NCI-H1944; first compound 0.3162 µM) of the same compound?
**A.** The relative viability was 1.12.

**Q.** And the relative viability (NCI-H1944; first compound 1 µM)?
**A.** Its relative viability is 0.816.

**Q.** And the relative viability (NCI-H1993; first compound 0.01 µM)?
**A.** Its relative viability is 0.943.

**Q.** And the relative viability (NCI-H1993; first compound 0.03162 µM)?
**A.** Its relative viability is 1.04.

**Q.** What about the relative viability (NCI-H1993; first compound 0.1 µM) of the same compound?
**A.** Its relative viability is 0.846.

**Q.** And the relative viability (NCI-H1993; first compound 0.3162 µM)?
**A.** The relative viability was 0.983.

**Q.** What about the relative viability (NCI-H1993; first compound 1 µM) of the same compound?
**A.** The relative viability was 0.823.

**Q.** And the relative viability (NCI-H1793; first compound 0.01 µM)?
**A.** The relative viability was 0.437.

**Q.** And the relative viability (NCI-H1793; first compound 0.03162 µM)?
**A.** The relative viability was 0.645.

**Q.** What about the relative viability (NCI-H1793; first compound 0.1 µM) of the same compound?
**A.** The relative viability was 0.476.

**Q.** And the relative viability (NCI-H1793; first compound 0.3162 µM)?
**A.** Its relative viability is 0.368.

**Q.** And the relative viability (NCI-H1793; first compound 1 µM)?
**A.** Its relative viability is 0.211.

**Q.** What about the relative viability (EMC-BAC-2; first compound 0.01 µM) of the same compound?
**A.** The relative viability was 1.22.

**Q.** And the relative viability (EMC-BAC-2; first compound 0.03162 µM)?
**A.** Its relative viability is 1.11.

**Q.** And the relative viability (EMC-BAC-2; first compound 0.1 µM)?
**A.** Its relative viability is 1.16.

**Q.** And the relative viability (EMC-BAC-2; first compound 0.3162 µM)?
**A.** The relative viability was 1.18.

**Q.** And the relative viability (EMC-BAC-2; first compound 1 µM)?
**A.** The relative viability was 1.18.

**Q.** And the relative viability (NCI-H1734; first compound 0.01 µM)?
**A.** The relative viability was 0.995.

**Q.** What about the relative viability (NCI-H1734; first compound 0.03162 µM) of the same compound?
**A.** Its relative viability is 0.892.

**Q.** And the relative viability (NCI-H1734; first compound 0.1 µM)?
**A.** Its relative viability is 0.978.

**Q.** What about the relative viability (NCI-H1734; first compound 0.3162 µM) of the same compound?
**A.** The relative viability was 0.891.

**Q.** And the relative viability (NCI-H1734; first compound 1 µM)?
**A.** Its relative viability is 0.606.

**Q.** What about the relative viability (NCI-H2009; first compound 0.01 µM) of the same compound?
**A.** Its relative viability is 1.27.

**Q.** What about the relative viability (NCI-H2009; first compound 0.03162 µM) of the same compound?
**A.** The relative viability was 1.19.

**Q.** And the relative viability (NCI-H2009; first compound 0.1 µM)?
**A.** Its relative viability is 1.25.

**Q.** And the relative viability (NCI-H2009; first compound 0.3162 µM)?
**A.** Its relative viability is 1.13.

**Q.** And the relative viability (NCI-H2009; first compound 1 µM)?
**A.** Its relative viability is 1.08.

**Q.** And the relative viability (HCC-78; first compound 0.01 µM)?
**A.** The relative viability was 0.822.

**Q.** What about the relative viability (HCC-78; first compound 0.03162 µM) of the same compound?
**A.** Its relative viability is 0.807.

**Q.** What about the relative viability (HCC-78; first compound 0.1 µM) of the same compound?
**A.** The relative viability was 0.792.

**Q.** And the relative viability (HCC-78; first compound 0.3162 µM)?
**A.** Its relative viability is 0.714.

**Q.** And the relative viability (HCC-78; first compound 1 µM)?
**A.** Its relative viability is 0.401.
